Measured values published in US20260061084A1, “FIBROBLAST ACTIVATION PROTEIN (FAP) INHIBITORS, FAP CONJUGATES, AND DIAGNOSTIC AND THERAPEUTIC USES THEREOF” (Nuclidium AG, priority 2022, published 2026).

Tests used:
[1] = tested on: HT-1080.hFAP (FAP-positive) cells; test: In vitro cellular uptake (cell surface-bound and internalized fractions); format: cell-based, human; settings: 37° C., specific uptake (HT-1080.wt subtracted)
Procedure: The cellular uptake was studied in vitro using intact cells seeded in 6-well plates overnight. […] At each investigated time point, the medium containing the unbound (free) radiotracer was removed, followed by two washing steps with ice-cold phosphate-buffered saline. The cells were then treated 2×5 min with ice-cold glycine solution (0.05 M, pH 2.8) to detach the cell surface-bound radiotracer (acid released). Afterwards, the cells containing the internalized radiotracer were detached with 1 M NaOH at 37° C. and collected for measurement. The amount of specific cell surface-bound and internalized radiotracer is expressed as percentage of the total applied activity, after subtracting the non-specific values.
The cells were then preconditioned in 360 μL of assay medium (MEM medium without supplements) at 37° C. for 60 min. 40 μL of a 2 nM solution of ^61Cu-labeled radioligand was added and the cells were incubated at 37° C. The cellular uptake was interrupted at different time points (15 min, 1 hour and 4 hours), by washing twice with ice-cold PBS. Cell surface-bound radioligand was obtained by washing cells twice with ice-cold glycine buffer (pH 2.8), followed by a collection of the internalized fraction with 1 M NaOH. The activity in each fraction was measured in a […] (Cobra II).

[2] = tested on: HT-1080.hFAP tumor-bearing mice; test: Biodistribution studies in xenografted mice; format: in vivo; settings: i.v.; for Biodistribution: HT-1080.wt: FAP-negative tumor; for Biodistribution: HT-1080.hFAP: FAP-positive tumor
Procedure: The tumors were allowed to grow to an average volume of 100-200 mm^3.
Biodistribution Studies: The xenografted mice were randomized (n=5 per group) and injected intravenously via the tail vein with the ^61Cu-labeled radioligands (100 μL, […], 0.8-1MBq). Mice were euthanized 1 h and 4 h p.i. by CO2 asphyxiation. Organs of interest and blood were collected, rinsed of excess blood, blotted dry, weighed, and counted in a […]. The samples were counted against a suitably diluted aliquot of the injected solution as the standard and the results are expressed as the percentage of the injected activity per gram of tissue (% I.A./g) ±SD.

[3] = tested on: Mice bearing FAP-positive and FAP-negative xenografts; test: PET/CT imaging: remaining PET activity in the mouse body; format: in vivo
Procedure: The mice were euthanized by CO2 at 4 hours p.i., and static PET scans were acquired for 30 min.
PET/CT images were acquired using β-CUBE PET scanner system (Molecubes, Gent, Belgium), with a spatial resolution of 0.85 mm and an axial field-of-view of 13 cm. Dynamic PET scans were acquired for 60 min. All PET scans were decay corrected and reconstructed into a 192×192×384 matrix by an ordered subsets maximization expectation (OSEM) algorithm using 30 iterations, a voxel size of 400×400×400 μm a 15 min per frame. CT data was used to apply attenuation correction on the PET data. The CT was imaged supine, head first, using the NanoSPECT/CTTM scanner (Bioscan Inc.). Topograms and helical CT scans of the whole mouse were first acquired using the following parameters: X-ray tube current: 177 μA, X-ray tube voltage 45 kVp, 90 seconds and 180 frames per rotation, pitch 1. CT images were reconstructed using CTReco (version r1.146), with a standard filtered back projection algorithm (exact cone beam) and post-filtered (RamLak, 100% frequency cut-off), resulting in a pixel size of 0.2 mm. Co-registered PET/CT images were visualized using maximum intensity projection (MIP) with VivoQuant software (version 4.0).

CN(CCCN1CCN(C(=O)CCC(C(=O)O)N2CCN(CC(=O)[O-])CCN(CC(=O)[O-])CC2)CC1)c1ccc2nccc(C(=O)NCC(=O)N3CC(F)(F)CC3C#N)c2c1.[61Cu+2] (stereo not drawn) [[^61Cu]Cu-NODAGA-FAPI-46, reference compound]
Cell surface fraction ([1]; 15 min): 0.9 ± 0.3 % of the applied activity | Internalized fraction ([1]; 30 min): 24.3 ± 2.3 % of the applied activity | Cell surface fraction ([1]; 60 min): 1.2 ± 0.4 % of the applied activity | Internalized fraction ([1]; 60 min): 36.1 ± 1.6 % of the applied activity | Cell surface fraction ([1]; 240 min): 1.7 ± 0.4 % of the applied activity | Internalized fraction ([1]; 240 min): 50.0 ± 6.0 % of the applied activity | Biodistribution: Intestine ([2]; 1 hour p.i.): 1.0 ± 0.4 % I.A./g | Biodistribution: Liver ([2]; 1 hour p.i.): 0.9 ± 0.0 % I.A./g | Biodistribution: Pancreas ([2]; 1 hour p.i.): 2.0 ± 0.2 % I.A./g | Biodistribution: Spleen ([2]; 1 hour p.i.): 0.7 ± 0.1 % I.A./g | Biodistribution: Stomach ([2]; 1 hour p.i.): 1.0 ± 0.1 % I.A./g | Biodistribution: Adrenal ([2]; 4 hours p.i.): 2.0 ± 0.2 % I.A./g | Biodistribution: Heart ([2]; 4 hours p.i.): 0.7 ± 0.1 % I.A./g | Biodistribution: Intestine ([2]; 4 hours p.i.): 0.6 ± 0.2 % I.A./g | Biodistribution: Kidneys ([2]; 4 hours p.i.): 1.0 ± 0.1 % I.A./g | Biodistribution: Liver ([2]; 4 hours p.i.): 0.8 ± 0.2 % I.A./g | Biodistribution: Lung ([2]; 4 hours p.i.): 1.0 ± 0.1 % I.A./g | Biodistribution: Spleen ([2]; 4 hours p.i.): 0.5 ± 0.1 % I.A./g | Biodistribution: Stomach ([2]; 4 hours p.i.): 0.6 ± 0.1 % I.A./g | Biodistribution: HT-1080.wt ([2]; 1 hour p.i.): 3.1 ± 0.0 % I.A./g | Biodistribution: HT-1080.wt ([2]; 4 hours p.i.): 2.5 ± 0.2 % I.A./g | Biodistribution: HT-1080.hFAP ([2]; 1 hour p.i.): 8.4 ± 1.4 % I.A./g | Biodistribution: HT-1080.hFAP ([2]; 4 hours p.i.): 7.7 ± 0.4 % I.A./g | Retention in the body (remaining PET activity 4 h p.i.), in words [3]: highest retention in the body
